From PubChem BioAssay AID248 (DTP/NCI, 2004)
Where “and” joins values, the source holds several entries; their conditions need not be identical. Equal values may be shown once. Toxic doses and inconclusive results are not listed. Cut-off read from the data, not from the text of the source: active = T/C of 150% or more; inactive = T/C below 125%.

Test system: L1210 leukemia ip in BDF1 mice, survival T/C
Assay: NCI In Vivo Anticancer Drug Screen. Data for tumor model L1210 Leukemia (intraperitoneal) in B6D2F1 (BDF1) mice
Settings: endpoint: mean survival time, higher = longer survival
In short: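 Read-out is survival time, reported as the treated-group measurement over the vehicle-control measurement.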

[1] = dose: 50.0 mg/kg/injection, schedule: Q01DX001 (ip), vehicle: carboxymethylcellulose (CMC)
[2] = dose: 50.0 mg/kg/injection, schedule: Q01DX009 (ip), vehicle: other
[3] = dose: 100.0 mg/kg/injection, schedule: Q01DX001 (ip), vehicle: carboxymethylcellulose (CMC)
[4] = dose: 100.0 mg/kg/injection, schedule: Q01DX009 (ip), vehicle: other
[5] = dose: 100.0 mg/kg/injection, schedule: Q04DX003 (ip), vehicle: Klucel (hydroxypropylcellulose) (HPC)
[6] = dose: 200.0 mg/kg/injection, schedule: Q01DX001 (ip), vehicle: carboxymethylcellulose (CMC)
[7] = dose: 200.0 mg/kg/injection, schedule: Q04DX003 (ip), vehicle: Klucel (hydroxypropylcellulose) (HPC)
[8] = dose: 400.0 mg/kg/injection, schedule: Q01DX001 (ip), vehicle: carboxymethylcellulose (CMC)
[9] = dose: 50.0 mg/kg/injection, schedule: Q01DX009 (ip), vehicle: Klucel (hydroxypropylcellulose) (HPC)
[10] = dose: 100.0 mg/kg/injection, schedule: Q01DX009 (ip), vehicle: Klucel (hydroxypropylcellulose) (HPC)
[11] = dose: 200.0 mg/kg/injection, schedule: Q01DX009 (ip), vehicle: Klucel (hydroxypropylcellulose) (HPC)
[12] = dose: 100.0 mg/kg/injection, schedule: Q01DX001 (ip), vehicle: Klucel (hydroxypropylcellulose) (HPC)
[13] = dose: 200.0 mg/kg/injection, schedule: Q01DX001 (ip), vehicle: Klucel (hydroxypropylcellulose) (HPC)
[14] = dose: 100.0 mg/kg/injection, schedule: Q01DX001 (ip), vehicle: saline
[15] = dose: 200.0 mg/kg/injection, schedule: Q01DX001 (ip), vehicle: saline
[16] = dose: 400.0 mg/kg/injection, schedule: Q01DX001 (ip), vehicle: saline
[17] = dose: 400.0 mg/kg/injection, schedule: Q01DX009 (ip), vehicle: Klucel (hydroxypropylcellulose) (HPC)
[18] = dose: 100.0 mg/kg/injection, schedule: Q01DX009 (ip), vehicle: saline with Tween-80
[19] = dose: 200.0 mg/kg/injection, schedule: Q01DX009 (ip), vehicle: saline with Tween-80
[20] = dose: 100.0 mg/kg/injection, schedule: Q01DX001 (ip), vehicle: other
[21] = dose: 200.0 mg/kg/injection, schedule: Q01DX001 (ip), vehicle: other
[22] = dose: 75.0 mg/kg/injection, schedule: Q01DX001 (ip), vehicle: saline
[23] = dose: 150.0 mg/kg/injection, schedule: Q01DX001 (ip), vehicle: saline
[24] = dose: 300.0 mg/kg/injection, schedule: Q01DX001 (ip), vehicle: saline

Measured: T/C

Cc1ccc(S(=O)(=O)Oc2ccc([N+](=O)[O-])cc2[N+](=O)[O-])cc1
inactive: [1] 106 % of control | [2] 100 % of control | [3] 114 % of control | [4] 96 % of control | [5] 118 % of control | [6] 106 % of control | [7] 96 % of control | [8] 106 % of control

Cc1c(Cl)c(=O)[nH]c2ccccc12
inactive: [9] 101 % of control | [10] 97 % of control | [11] 106 % of control

CN(C)CCN1C(=O)c2ccc3c4c(ccc(c24)C1=O)C(=O)N(CCN(C)C)C3=O
inactive: dose: 50.0 mg/kg/injection, schedule: Q01DX001 (ip), vehicle: Klucel (hydroxypropylcellulose) (HPC) 96 % of control | [12] 94 % of control | [13] 89 % of control

Cn1ccc[n+]1C
inactive: [14] 93 % of control | [15] 101 % of control | [16] 92 % of control

CN1C(=O)NC(C)(CCOCc2ccccc2)C1=O (stereo unspecified)
inactive: [1] 96 % of control | [3] 107 % of control | [6] 100 % of control | [8] 100 % of control

Cc1ccc(C(=O)/C=C/c2ccco2)c(C)c1
inactive: dose: 100.0 mg/kg/injection, schedule: Q04DX002 (ip), vehicle: Klucel (hydroxypropylcellulose) (HPC) 99 % of control | dose: 200.0 mg/kg/injection, schedule: Q04DX002 (ip), vehicle: Klucel (hydroxypropylcellulose) (HPC) 86 % of control | dose: 400.0 mg/kg/injection, schedule: Q04DX002 (ip), vehicle: Klucel (hydroxypropylcellulose) (HPC) 99 % of control

O=S1(=O)CCS(=O)(=O)C12CCCCC2
inactive: [14] 98 % of control | [15] 107 % of control | [16] 90 % of control

NS(N)(=O)=O
inactive: [1] 88 % of control | [3] 95 % of control | [6] 98 % of control | [8] 98 % of control

O=C(Nc1ncccn1)C(F)(F)F
inactive: dose: 50.0 mg/kg/injection, schedule: Q01DX001 (ip), vehicle: saline 95 % of control | [14] 92 % of control | [15] 95 % of control | [16] 90 % of control

CCOC(=O)/C(C#N)=C/c1ccc(O)cc1
inactive: dose: 100.0 mg/kg/injection, schedule: Q01DX Z (ip), vehicle: methylcellulose (MC) 96 % of control | dose: 200.0 mg/kg/injection, schedule: Q01DX Z (ip), vehicle: methylcellulose (MC) 96 % of control

O=C(Nc1cc(C(F)(F)F)ccc1Cl)Oc1ccc(Cl)cc1Cc1ccccc1
inactive: dose: 25.0 mg/kg/injection, schedule: Q01DX009 (ip), vehicle: Klucel (hydroxypropylcellulose) (HPC) 93 % of control | [9] 88 % of control | [10] 101 % of control and 86 % of control and 88 % of control

CCCc1c(N)nc(N)nc1C(=O)O
inactive: [12] 94 % of control | [10] 100 % of control | [13] 94 % of control | [11] 109 % of control | dose: 400.0 mg/kg/injection, schedule: Q01DX001 (ip), vehicle: Klucel (hydroxypropylcellulose) (HPC) 92 % of control | [17] 86 % of control

CCN(C(=O)c1ccc([N+](=O)[O-])cc1)C(c1ccco1)P(=O)(c1ccccc1)c1ccccc1 (stereo unspecified)
inactive: dose: 100.0 mg/kg/injection, schedule: Q04DX002 (ip), vehicle: saline with Tween-80 87 % of control | dose: 200.0 mg/kg/injection, schedule: Q04DX002 (ip), vehicle: saline with Tween-80 87 % of control | dose: 400.0 mg/kg/injection, schedule: Q04DX002 (ip), vehicle: saline with Tween-80 93 % of control

OC1C=NC(N2CCN(c3ccccc3)CC2)=Cc2ccccc21 (stereo unspecified)
inactive: dose: 100.0 mg/kg/injection, schedule: Q04DX003 (ip), vehicle: saline with Tween-80 97 % of control | dose: 200.0 mg/kg/injection, schedule: Q04DX003 (ip), vehicle: saline with Tween-80 95 % of control | dose: 400.0 mg/kg/injection, schedule: Q04DX003 (ip), vehicle: saline with Tween-80 92 % of control

Nc1ccc(Br)cc1
inactive: [18] 100 % of control | [19] 95 % of control | dose: 400.0 mg/kg/injection, schedule: Q01DX009 (ip), vehicle: saline with Tween-80 99 % of control

O=C1C=CC(=O)C(SCCSC2=CC(=O)C(SCCSC3=CC(=O)C=CC3=O)=CC2=O)=C1
inactive: [14] 98 % of control | [15] 101 % of control | [16] 95 % of control

O=c1[nH]c(=O)n(C2CC(O)C(CO)O2)cc1Br (stereo unspecified)
inactive: dose: 50.0 mg/kg/injection, schedule: Q02DX Z (ip), vehicle: carboxymethylcellulose (CMC) 108 % of control | dose: 100.0 mg/kg/injection, schedule: Q02DX Z (ip), vehicle: carboxymethylcellulose (CMC) 107 % of control | dose: 150.0 mg/kg/injection, schedule: Q02DX Z (ip), vehicle: carboxymethylcellulose (CMC) 109 % of control | dose: 200.0 mg/kg/injection, schedule: Q02DX Z (ip), vehicle: carboxymethylcellulose (CMC) 113 % of control | dose: 250.0 mg/kg/injection, schedule: Q02DX Z (ip), vehicle: carboxymethylcellulose (CMC) 109 % of control | dose: 300.0 mg/kg/injection, schedule: Q02DX Z (ip), vehicle: carboxymethylcellulose (CMC) 113 % of control | dose: 400.0 mg/kg/injection, schedule: Q02DX Z (ip), vehicle: carboxymethylcellulose (CMC) 110 % of control | dose: 500.0 mg/kg/injection, schedule: Q02DX Z (ip), vehicle: carboxymethylcellulose (CMC) 114 % of control | dose: 600.0 mg/kg/injection, schedule: Q01DX009 (ip), vehicle: carboxymethylcellulose (CMC) 123 % of control | dose: 600.0 mg/kg/injection, schedule: Q02DX Z (ip), vehicle: carboxymethylcellulose (CMC) 122 % of control | dose: 800.0 mg/kg/injection, schedule: Q01DX Z (ip), vehicle: carboxymethylcellulose (CMC) 122 % of control | dose: 1000.0 mg/kg/injection, schedule: Q01DX Z (ip), vehicle: carboxymethylcellulose (CMC) 113 % of control | dose: 1800.0 mg/kg/injection, schedule: Q01DX009 (ip), vehicle: carboxymethylcellulose (CMC) 102 % of control

COc1cc2c(c(O)c1OCC=C(C)C)c(=O)c1ccccc1n2C
inactive: [3] 93 % of control | [6] 95 % of control | [8] 88 % of control

Cc1ccc(NC(=S)NC(=O)COc2ccccc2)cc1C
inactive: dose: 50.0 mg/kg/injection, schedule: Q01DX001 (ip), vehicle: other 92 % of control | [2] 96 % of control and 108 % of control | dose: 50.0 mg/kg/injection, schedule: Q04DX002 (ip), vehicle: other 101 % of control and 116 % of control | dose: 50.0 mg/kg/injection, schedule: Q04DX003 (ip), vehicle: other 95 % of control | [20] 97 % of control | [4] 100 % of control and 86 % of control | dose: 100.0 mg/kg/injection, schedule: Q04DX003 (ip), vehicle: other 92 % of control | [21] 101 % of control | dose: 200.0 mg/kg/injection, schedule: Q01DX009 (ip), vehicle: other 96 % of control and 90 % of control

O=C(OCCOC(=O)c1cccc([N+](=O)[O-])c1)c1cccc([N+](=O)[O-])c1
inactive: [20] 95 % of control | [21] 96 % of control | dose: 400.0 mg/kg/injection, schedule: Q01DX001 (ip), vehicle: other 96 % of control

CC1(C)OC2C3CC(C2O1)n1cnc2c(N)nc[n+](c21)C3 (stereo unspecified)
inactive: [22] 120 % of control | [23] 101 % of control | [24] 106 % of control

NC(=O)N/N=C1\CCCC(OC(=O)c2ccccc2)CC1 (stereo unspecified)
inactive: [10] 97 % of control | [5] 97 % of control | [11] 97 % of control | [7] 102 % of control | [17] 94 % of control | dose: 400.0 mg/kg/injection, schedule: Q04DX003 (ip), vehicle: Klucel (hydroxypropylcellulose) (HPC) 96 % of control

c1cc[c]([Ge]([O][Ge]([c]2ccccc2)([c]2ccccc2)[c]2ccccc2)([c]2ccccc2)[c]2ccccc2)cc1
inactive: dose: 50.0 mg/kg/injection, schedule: Q01DX009 (ip), vehicle: saline with Tween-80 94 % of control | [18] 96 % of control | [19] 96 % of control

O=C(CCN1CCOCC1)c1ccccc1
inactive: [22] 94 % of control | [23] 89 % of control | [24] 92 % of control
